Marks after values point to notes of the source that are not given here.
Columns and labels:
Assay type in all cases: in vivo, SCID mice
s.c. BxPC3 tumors = assay: Protocol 146: ^212Pb-DOTAM distribution after PRIT, 5 min to 48 h
Description: Protocol 146 was designed to provide in vivo ^212Pb-DOTAM distribution data after PRIT for estimations of the absorbed radioactive dose to tumor and normal tissues, in SCID mice carrying s.c. BxPC3 tumors. The quenching of ^212Pb-DOTAM was performed using Ca (see example 34).
Pretargeting was performed by injection of CEA-DOTAM BsAb, followed 7 days later by the CA. After 24 hours, the ^212Pb-DOTAM was administered. Groups of mice were sacrificed at multiple time points from 5 minutes to 48 hours after the radioactive injection, and blood and organs harvested for radioactive measurement. […] Absorbed doses were finally calculated through established methods using the resulting time-activity curves. […]
Mice in group E and F were individually housed (i.e. one mouse per cage) in grilled-floor metabolic cages. Urine and feces were collected from each cage 2, 6, and 24 hours after the radioactive injection, and the individual samples subsequently measured for radioactivity. […]
Blood/serum was collected from all mice through retro-orbital bleeding before termination. After euthanasia, the following additional organs and tissues were harvested for radioactivity measurement and calculation of % ID/g: bladder, uterus, small intestine, colon, spleen, pancreas, kidneys, stomach, liver, lung, heart, brain, femoral bone, skin, muscle, abdominal fat, tail, and tumor.

BxPC3 tumors [1] = assay: Protocol 93a: efficacy and biodistribution of CEA-PRIT
Description: The bispecific antibodies were compared side-by-side in single- and double-cycle treatment regimens.
Groups A-G represent the treated mice that were followed up for assessment of efficacy, whereas groups H-L comprise mice that were sacrificed for biodistribution purposes 24 h after their last ^212Pb-DOTAM injection.
Solid xenografts were established by subcutaneous injection of cells in RPMI (BxPC3) or DMEM (LS174T) media mixed 1:1 with Corning® Matrigel® basement membrane matrix (growth factor reduced; cat No. 354230).
For protocol 93a, mice (age 7 weeks) were injected s.c. into the right flank with 5×10^6 BxPC3 cells (passage 33) in 100 μl RPMI/Matrigel. Twelve days after tumor cell injection, mice were sorted into experimental groups with an average tumor volume of 235 mm^3.
To minimize re-ingestion of radioactive urine/feces after treatment cycle 1, cages were changed 4 hours after ^212Pb-DOTAM administration, and then again at 24 h p.i. For cycle 2, mice were placed in cages with grilled floors for 4 hours after ^212Pb-DOTAM administration, before being transferred to new cages with standard bedding. All cages were then changed at 24 h p.i., as after cycle 1. The tumor development in the mice was followed through repeated calipering three times a week. If needed, additional calipering was performed in the gaps between scheduled measurements. The body weight of the animals was measured repeatedly in the same fashion. Mice whose tumor volume reached 3000 mm^3 were immediately euthanized. Other factors taken into account for euthanasia for ethical reasons were body weight loss, tumor status (e.g. ulceration) and general appearance of the animal. Wet food was provided to all animals starting from five days after the radioactive injection if mandated by an acute loss of body weight (collective or individual) due to radiation-induced toxicity, until all individuals had recovered sufficiently.
The following organs and tissues were harvested from groups A-G at the time of euthanasia: bladder, ovaries, liver, spleen, kidneys, femur (including bone marrow), colon, jejunum, stomach, and tumor. Unexpected or abnormal conditions were noted and photographed. Tissues were immediately put in 10% neutral buffered formalin (4° C.) and then transferred to PBS (4° C.) after 5 days. The formalin-fixed samples were then shipped to Roche Pharma Research and Early Development, Roche Innovation Center Basel, for further processing and analysis.
Mice in groups H, J, and L were sacrificed and necropsied 24 hours after their first and only injection of ^212Pb-DOTAM; groups I and K were sacrificed and necropsied 24 hours after their second ^212Pb-DOTAM injection. The following organs and tissues were harvested: blood, bladder, small intestine, colon, spleen, pancreas, kidneys, liver, lung, heart, femoral bone, muscle, tail, and tumor. Collected samples were weighed and measured for radioactivity, and the percent injected dose per gram of tissue (% ID/g) subsequently calculated, including corrections for decay and background.

BxPC3 tumors [2] = assay: Protocol 95: TCMC saturation, CA-to-antibody ratio, ^212Pb activity; details: no CA, 24 h; for tumor accumulation: ±SD, n=3
Source text: In this study, nine different clearing agents based on dextran-500 were compared in terms of inhibition of ^212Pb-DOTAM association to tumors. More specifically, the experiment assessed the impact on tumor-associated radioactivity from i) TCMC saturation, ii) clearing agent-to-antibody ratio, and iii) production/purification method. In addition, the tumor uptake was compared after injection of 10 or 30 μCi of ^212Pb-DOTAM, without pretargeting or CA, to assess whether radioactivity saturation of the tumor was achieved already at the lower dose.
PRIT-0165 (100 μg per 100 μL) was administered i.v., followed three days later by dextran-500-based clearing reagents (10-170 μg per 100 μL) with varying TCMC substitution (10-100%). Groups J and K received PBS instead of clearing agent. Two hours later, mice were injected i.v. with 100 μL of the respective ^212Pb-DOTAM solutions (10 or 30 μCi).
Mice were sacrificed and necropsied 24 hours after injection of ^212Pb-DOTAM. Blood, bladder, spleen, kidneys, liver, lung, muscle, tail, and tumors were collected, weighed and measured for radioactivity content, and the % ID/g subsequently calculated.

[3] = labelled group 30 + 30 μCi 212Pb-DOTAM, multiple test level = 0.00238

## NC(=O)CN1CCN(CC(N)=O)CCN(CC(N)=O)CCN(CC(N)=O)CC1.[212Pb+2] [^212Pb-DOTAM]
s.c. BxPC3 tumors; 5 minutes after injection, pretargeted by CEA-DOTAM BsAb, CA
  accumulation of radioactivity in tumor: 17 % ID/g
s.c. BxPC3 tumors; by 6 hours p.i., remaining for at least 48 hours
  accumulation of radioactivity in tumor: over 40%
BxPC3 tumors [1]; day 47, 30+30 μCi, compared with PBS
  tumor growth inhibition (TGI): 15.8%
BxPC3 tumors [1]; [3]
  Pairwise Log-Rank Test, survival, p vs PRIT-0175 30 + 30 μCi: 0.0032*
  Pairwise Log-Rank Test, survival, p vs PRIT-0213 30 + 10 μCi: 0.0001*
  Pairwise Log-Rank Test, survival, p vs PRIT-0213 30 + 30 μCi: 0.8474
  Pairwise Log-Rank Test, survival, p vs PRIT-0214 30 + 10 μCi: <.0001*
  Pairwise Log-Rank Test, survival, p vs PRIT-0214 30 + 30 μCi: 0.0685
  Pairwise Log-Rank Test, survival, p vs Vehicle (PBS): 0.5271
  Pairwise Wilcoxon Test, survival, p vs PRIT-0175 30 + 30 μCi: 0.0042*
  Pairwise Wilcoxon Test, survival, p vs PRIT-0213 30 + 10 μCi: 0.0004*
  Pairwise Wilcoxon Test, survival, p vs PRIT-0213 30 + 30 μCi: 0.8704
  Pairwise Wilcoxon Test, survival, p vs PRIT-0214 30 + 10 μCi: 0.0002*
  Pairwise Wilcoxon Test, survival, p vs PRIT-0214 30 + 30 μCi: 0.0827
  Pairwise Wilcoxon Test, survival, p vs Vehicle (PBS): 0.1439
BxPC3 tumors [2]; 10 μCi ^212Pb-DOTAM
  tumor-to-blood ratio: 2.26±0.25
  tumor accumulation: 72.38±10.83 % ID/g
BxPC3 tumors [2]; 30 μCi ^212Pb-DOTAM
  tumor-to-blood ratio: 3.20±0.20
  tumor accumulation: 107.74±14.71 % ID/g
